Source: article PMC6048268, “Resveratrol Inhibits Key Steps of Steroid Metabolism in a Human Estrogen-Receptor Positive Breast Cancer Model: Impact on Cellular Proliferation” (Frontiers in Pharmacology, 2018)

Experiments:
MCF-7 cells [1] = assay: Metabolism of RES in MCF-7 cells (HPLC)
Description: (§1) After 48 h, the cellular media (100 μl) were mixed with 200 μl ice-cold (-20°C) methanol and subsequently centrifuged (14000 rpm, 5 min). The clear supernatants were then diluted 1:1 with aqueous ammonium acetate buffer (5 mM, pH = 7.4), and 80 μl of the samples were injected onto the HPLC column. […] Calibration of the chromatogram was accomplished using the external standard method.
(§2) The modes of inhibition were subsequently determined from Lineweaver–Burk plots, and the corresponding Ki values were calculated from Dixon plots using GraphPad Prism 6.0.

[2] = 0.5–5.0 g/day RES for up to 29 days, healthy subjects; ref Brown et al., 2010; cited from earlier work
MDA-MB-231 cells [3] = assay: Metabolism of RES in MDA-MB-231 cells (HPLC)
Description: as §1, §2

MDA-MB-231 cells [4] = conditions: for decrease of native hormone precursor: MDA-MB-231, 100 nM, 48 h
Description: (§3) Briefly, cartridges were preconditioned with 2 × 1.0 ml acetonitrile and 3 × 1.0 ml ammonium acetate buffer (10 mM, pH = 5.0), and the samples were loaded onto the columns. After washing with 1 × 1.0 ml ammonium acetate buffer (10 mM, pH = 5.0) and 2 × 1.0 ml acetonitrile/ammonium acetate buffer (10 mM, pH 5.0) 10:90 (v/v), the analytes were eluted using 2 × 650 μl acetonitrile/ammonium acetate buffer (10 mM, pH = 5.0) 95:5 (v/v) and evaporated until dry. Subsequently, samples were reconstituted in 270 μl acetonitrile/ammonium acetate buffer (10 mM, pH = 5.0) 25:75 (v/v) and stored at -80°C until further LC–HRMS analysis.
(§4) After media collection, cell monolayers were washed five times with 2.0 ml DPBS, detached using 400 μl TrypLE® solution (37°C, 5 min), mixed with 600 μl DPBS and transferred into sample vials. Aliquots of these suspensions (100 μl each) were diluted and counted using the Casy® TT Cell Counter to determine the exact number of cells per sample well. The remaining cell suspensions (900 μl each) were gently centrifuged (1000 rpm, 8 min), and the supernatants were discarded. The cell pellets were subsequently resuspended in 100 μl aqueous ammonium acetate buffer (10 mM, pH = 5.0) and lysed by five freeze-thaw-cycles in liquid nitrogen (3 min each), followed by thawing at ambient temperature. Ammonium acetate buffer (1000 μl) was added, and the suspensions were centrifuged (14000 rpm, 5 min). Subsequently, the supernatants were concentrated using the same SPE protocol as described above. All processed samples were then stored at -80°C until further LC–HRMS analysis. For each condition, three biologically independent experiments were performed; the reported values represent the overall means ± SD of all values.
(§5) LC was performed with an UltiMate 3000 RSLC-series system coupled to a maXis HD ESI-Qq-TOF mass spectrometer (Bruker Corporation, Bremen, Germany). A Phenomenex Luna® 3 μm C18(2) 100 Å LC column (250 mm × 4.6 mm I.D.; Phenomenex, Inc., Torrance, CA, United States), preceded by a Hypersil® BDS-C18 guard column (5 μm, 10 mm × 4.6 mm I.D.; Thermo Fisher Scientific, Inc.) was used for the separation of the analytes at a flow rate of 1.0 ml/min and a temperature of 43°C. […] The ESI ion source settings were as follows: capillary voltage: -4.5 kV; dry gas flow rate: 8.0 l/min N2; nebulizer: 1.0 bar N2; and dry temperature: 200°C. The ion transfer parameters were set to 400 Vpp funnel RF and 300 Vpp multipole RF, the quadrupole ion energy was 8.0 eV, and the collision cell parameters were as follows: collision RF, 1100 Vpp; collision energy, 10.0 eV; transfer time, 38 μs; and pre-pulse storage, 18 μs. In the range of m/z 150–500, full-scan mass spectra were recorded.
as §2

MCF-7 cells [5] = conditions: for decrease of native hormone precursor: MCF-7, 100 nM, 48 h
Description: as §3, §4, §5, §2

MCF-7 cells [6] = assay: Cell proliferation, Casy cell counting, MCF-7; format: cell-based, human; conditions: 48 h; for cell number: 100 nM hormone precursor
Description: (§6) MDA-MB-231 and MCF-7 breast cancer cells were purchased from the American Type Culture Collection (ATCC; Manassas, VA, United States) and routinely cultivated at 37°C (95% humidity and 5% CO2) in phenolred-free Dulbecco’s modified Eagle medium F-12 (DMEM/F-12), fortified with 1% PenStrep®-solution and 10% fetal bovine serum (Invitrogen; Thermo Fisher Scientific, Inc., Waltham, MA, United States). All experiments were performed during the exponential growth phase of both cell lines. For the experiments, cells were seeded in 6-well-plates at a density of 1.0 × 10^6 cells per well and allowed to attach for 24 h.
(§7) Prior to cell counting with a Casy® TT Cell Counter (OLS OMNI Life Science, Bremen, Germany), the supernatant medium was removed and cells were detached using 400 μl TrypLe® solution (Invitrogen). All experiments were performed in triplicate, and the data were reported as the means ± standard deviation of all values.

MDA-MB-231 cells [7] = assay: Cell proliferation, Casy cell counting, MDA-MB-231; format: cell-based, human; conditions: 0–100 nM, 48 h, hormone-deprived
Description: as §6, §7

O=S(=O)(O)Oc1cc(O)cc(/C=C/c2ccc(O)cc2)c1 [RES-3S, trans-resveratrol-3-O-sulfate]
fold increase of metabolite formation in MCF-7 compared with MDA-MB-231 (MCF-7 cells [1]): 150 fold
mean maximum formation rate (MCF-7 cells [1]; MCF-7, 48 h): 340.1 ± 49.4 pmol/10^6 cells/h
Vmax (MCF-7 cells [1]; MCF-7, Michaelis–Menten model): 468.4 ± 9.9 pmol/10^6 cells/h
Vmax (MCF-7 cells [1]; MCF-7, substrate inhibition model): 501.4 ± 17.1 pmol/10^6 cells/h
reduction in metabolite formation (MCF-7 cells [1]; RES up to 100 μM, substrate inhibition): 43.2%
levels of metabolite relative to RES [2]: approximately 10 fold
maximum metabolite formation rate (MDA-MB-231 cells [3]; 25 μM RES, 48 h): 2.28 ± 0.33 pmol/10^6 cells/h
Vmax (MDA-MB-231 cells [3]; MDA-MB-231, Michaelis–Menten model): 3.25 ± 0.44 pmol/10^6 cells/h
Vmax (MDA-MB-231 cells [3]; MDA-MB-231, substrate inhibition model): 4.31 ± 0.97 pmol/10^6 cells/h

C[C@]12CC[C@@H]3c4ccc(O)cc4CC[C@H]3[C@@H]1CCC2=O [E1, estrone]
decrease of native hormone precursor (MDA-MB-231 cells [4]): 12.3%
decrease of native hormone precursor (MCF-7 cells [5]): 12.9%
cell number (MCF-7 cells [6]): 3.85 ± 0.36 × 10^6 cells
stimulation of proliferation (MCF-7 cells [6]; 100 nM): 59.8%
effect of hormone precursor on cell growth (MDA-MB-231 cells [7]): did not further increase cell growth

O=C(O)C1OC(Oc2ccc(C=Cc3cc(O)cc(O)c3)cc2)C(O)C(O)C1O [RES-4G, trans-resveratrol-4′-O-(β-D-glucuronide)]
formation of RES metabolite (MCF-7 cells [1]; RES 0–100 μM, 48 h): below the detection limit
formation of RES metabolite (MDA-MB-231 cells [3]; RES 0–100 μM, 48 h): below the detection limit

C[C@]12CC[C@H](O)CC1=CC[C@@H]1[C@@H]2CC[C@]2(C)C(=O)CC[C@@H]12 [DHEA, dehydroepiandrosterone]
decrease of native hormone precursor (MDA-MB-231 cells [4]): 26.8%
remaining precursor concentration in the medium (MDA-MB-231 cells [4]; MDA-MB-231, from 100 nM, after 48 h): 73.2 ± 2.5 nM
decrease of native hormone precursor (MCF-7 cells [5]): 54.9%
remaining precursor concentration in the medium (MCF-7 cells [5]; MCF-7, from 100.0 nM, after 48 h): 45.1 ± 1.8 nM
cell number (MCF-7 cells [6]): 2.69 ± 0.24 × 10^6 cells
effect of hormone precursor on cell growth (MDA-MB-231 cells [7]): did not further increase cell growth
